From patent US6462064B1, “Apoptosis inducing adamantyl derivatives and their usage as anti-cancer agents, especially for cervical cancers and dysplasias” (Galderma Research & Development S.N.C., priority 1996, dated 2002)
Entries after “also recorded” stand apart in the source; their conditions may differ.

What was measured:
cancer cells = experiment: List of active compounds: types of cancers and precancers active against; format: cell-based
Text: As discussed, the adamantyl retinoid derivatives according to the invention which induce apoptosis are useful for treating many different types of cancers.

[1] = test system: human cervical cancer cell lines Caski and C33A; experiment: Proliferation assay on cervical cancer cell lines (Example 32, FIG. 6); format: cell-based
Description: Two human cervical cancer cell lines, the Caski and C33A (which contains integrated human papillomavirus sequences) were treated with adapalene at concentrations of 1, 2 and 10 μM for 24, 48 and 96 hours or with tretinoin as a control. Afterward, human cervical cancer cells, which had been treated for […] or 48 hours, were then washed and incubated in a medium lacking adapalene.
After a total incubation time of 96 hours, a proliferation assay was performed to assess the extent of inhibition of proliferation or cell killing. […] The EC50 (concentration of adapalene that provides for 50% inhibition of cell proliferation) for the tested human cervical cancer cell lines was estimated to be approximately 5 μM.

[2] = test system: human cervical cancer cell lines (C33A cells and Caski cells); experiment: Proliferation of human cervical cancer cell lines (Example 33, FIG. 7); format: cell-based
Description: Another experiment was also conducted to compare the effect of three different retinoid compounds according to the invention, i.e., 6-[3-(1-adamantyl)-4-methoxyphenyl]-2-naphthoic acid, 2-[3-(1-adamantyl)-4-methoxyphenyl]-5-benzimidazole carboxylic acid, and 6-[3-(1-adamantyl)-4,5-methylenedioxyphenyl]-2-naphthoic acid, a control (DMSO), and a control retinoid (all-trans retinoic acid) on the proliferation of several human cervical cancer cell lines (C33A cells and Caski cells).

[3] = test system: cervical cancer cell lines; experiment: Apoptosis, cellular DNA fragmentation ELISA (FIG. 8); format: cell-based, human; conditions: eighteen hours; adapalene 1, 5 and 10 μM, tRA 10 μM, ceramide 0.5 mM
Description: In this experiment cells were labeled with BrdU for six hours. After labeling, cells were treated with vehicle (DM50), or with 10 μM tRA, 0.5 mM ceramide or doses of adapalene of 1, 5 and 10 μM for eighteen hours. Apoptosis was measured using a cellular DNA fragmentation ELISA kit (available from Boehringer). […] Therein, one unit represents the value obtained from cells grown in the presence of vehicle alone.

[4] = test system: Cervical Intraepithelial Neoplasia Level II or III; experiment: Phase I/II clinical study, aqueous adapalene gel with cervical cap and collagen sponge; format: in vivo, human; conditions: for CIN Resolved / Improved to CIN I / Overall Response / Overall “cure” / Improved from CIN III to CIN II: Table II
Text: Level I corresponds to mild cervical dysplasia, II to moderate dysplasia, and III to severe dysplasia, and carcinoma in situ.
A clinical study was designed and approved where an aqueous adapalene gel was delivered with a cervical cap and a collagen sponge in patients with advanced cervical dysplasia (CIN II and CIN III). Inclusion criteria for enrollment included a biopsy proving diagnosis of CIN II or CIN III. Forty-nine patients received the drug and completed the study.

[5] = test system: various human cancer cell lines; experiment: Anti-cancer activity against human cancer cell lines over a concentration range (FIGS. 2-4); format: cell-based; conditions: retinoid concentrations 10^−9 M to 10^−5 M
Text: FIG. 2 compares the activity of selected adamantyl retinoids according to the invention and all-trans-retinoic acid against a human non-small lung carcinoma cell line.
FIG. 3 compares the activity of selected adamantyl retinoids according to the invention and all-trans-retinoic acid against human prostate adenocarcinoma, human metastatic prostate adenocarcinoma, and human prostate carcinoma cell lines.
FIG. 4 compares the activity of selected adamantyl retinoids according to the invention and all-trans-retinoic acid against a human liver cancer cell line.

[6] = test system: human pancreatic cancer BxPC-3 tumor cells; experiment: Human xenograft mouse animal model, pancreatic cancer BxPC-3; format: in vivo; conditions: 80 mg/kg intraperitoneally, starting 28 days after inoculation; compared to vehicle control group; FIG. 5
Description: The anti cancer activity of a compound according to the invention, 6-[3-(1-adamantyl)-4,5-methylenedioxyphenyl]-2-naphthoic acid was also evaluated in a human xenograft mouse animal model containing human pancreatic cancer BxPC-3 tumor cells. Starting twenty-eight days after inoculation of tumor cells, said xenograft containing mice were administered the retinoid compound intraperitoneally at a dosage of 80 mg/kg body weight. Also, a control group of said mice was inoculated under similar conditions with the pharmaceutical vehicle used for formulation (but lacking the retinoid compound).

[7] = test system: panel of human tumor cell lines; experiment: Cell-based high throughput screening assays, percentage of surviving cells; conditions: active = percentage survival of less than 80; FIG. 1
Description: The anti-cancer activity of various adamantyl retinoid compounds according to the invention was compared to all-trans-retinoic acid using cell-based high throughput screening assays. Specifically, the following compounds were tested in such assays: all-trans-retinoic acid, 6[3(1-adamantyl)-4-methoxyphenyl]-2-naphthoic acid, 2-[3-(1-adamantyl)-4-methoxyphenyl]-5-benzimidazole carboxylic acid, 6-[3-(1-adamantyl)-4-hydroxy-5-methoxyphenyl]-2-naphthoic acid, 6-[3-(1-adamantyl)-4-acetoxymethylphenyl]-2-naphthoic acid and 6-[3-(1-adamantyl)-4,5-methylenedioxyphenyl]-2-naphthoic acid.
These compounds were tested against a panel of human tumor cell lines having a variety of tissue origins, and having distinct tumor characteristics. The tumor cell cultures were exposed to the above retinoid compounds for a specific duration. After such exposure, the percentage of surviving cells was then measured using standard assays.

[8] = length of treatment 4 days (n = 2), patients (percent)
[9] = length of treatment 8 days (n = 23), patients (percent)
[10] = length of treatment 14 days (n = 24), patients (percent)

COc1ccc(-c2ccc3cc(C(=O)O)ccc3c2)cc1C12CC3CC(CC(C3)C1)C2 [Compound 1, 6-[3-(1-adamantyl)-4-methoxyphenyl]-2-naphthoic acid]
Types of Cancers and Precancers Active Against (cancer cells): brain, cervical (including, e.g.,; also recorded: cervical intraepithelial neoplasia; also recorded: I, II, III), head and neck, leu-; also recorded: kemia, lymphoma, prostate, skin
inhibition of proliferation of cervical cancer cell lines ([1]; 1, 2 and 10 μM for 24, 48 and 96 hours): inhibit the proliferation of cervical cancer cell lines in a dose-dependent manner
EC50 ([1]; Homo sapiens, total incubation time 96 hours, estimated, read-out: EC50 (concentration that provides for 50% inhibition of cell proliferation)): ~5 µM
effect of incubation longer than 24 hours on proliferation ([1]; increase between 48 and 96 hours not statistically significant (p>0.05)): only a marginal effect on proliferation
concentration at which maximum inhibition of cell proliferation occurred ([1]; tested at 1, 2 and 10 μM): 10 µM
effect on proliferation of human cervical cell lines [2]: strong inhibitory effect
induction of apoptosis [3]: comparable to that of cells incubated with ceramide
Response: Complete ([4]; 4 days, CIN II (n = 0)): 0(0.0)
Response: Overall ([4]; 4 days, CIN II (n = 0)): 0(0.0)
Response: Partial ([4]; 4 days, CIN II (n = 0)): 0(0.0)
Response: Progression ([4]; 4 days, CIN II (n = 0)): 0(0.0)
Response: Stable ([4]; 4 days, CIN II (n = 0)): 0(0.0)
Response: Complete ([4]; 4 days, CIN III/CIS (n = 2)): 0(0.0)
Response: Overall ([4]; 4 days, CIN III/CIS (n = 2)): 0(0.0)
Response: Partial ([4]; 4 days, CIN III/CIS (n = 2)): 0(0.0)
Response: Progression ([4]; 4 days, CIN III/CIS (n = 2)): 0(0.0)
Response: Stable ([4]; 4 days, CIN III/CIS (n = 2)): 2(100.0)
Response: Complete ([4]; 8 days, CIN II (n = 12)): 4(33.3)
Response: Overall ([4]; 8 days, CIN II (n = 12)): 8(66.7)
Response: Partial ([4]; 8 days, CIN II (n = 12)): 4(33.3)
Response: Progression ([4]; 8 days, CIN II (n = 12)): 0(0.0)
Response: Stable ([4]; 8 days, CIN II (n = 12)): 4(33.3)
Response: Complete ([4]; 8 days, CIN III/CIS (n = 11)): 3(27.3)
Response: Overall ([4]; 8 days, CIN III/CIS (n = 11)): 6(54.5)
Response: Partial ([4]; 8 days, CIN III/CIS (n = 11)): 3(27.3)
Response: Progression ([4]; 8 days, CIN III/CIS (n = 11)): 0(0.0)
Response: Stable ([4]; 8 days, CIN III/CIS (n = 11)): 5(45.4)
Response: Complete ([4]; 14 days, CIN II (n = 14)): 3(21.4)
Response: Overall ([4]; 14 days, CIN II (n = 14)): 6(42.9)
Response: Partial ([4]; 14 days, CIN II (n = 14)): 3(21.4)
Response: Progression ([4]; 14 days, CIN II (n = 14)): 0(0.0)
Response: Stable ([4]; 14 days, CIN II (n = 14)): 8(57.1)
Response: Complete ([4]; 14 days, CIN III/CIS (n = 10)): 2(20.0)
Response: Overall ([4]; 14 days, CIN III/CIS (n = 10)): 3(30.0)
Response: Partial ([4]; 14 days, CIN III/CIS (n = 10)): 1(10.0)
Response: Progression ([4]; 14 days, CIN III/CIS (n = 10)): 0(0.0)
Response: Stable ([4]; 14 days, CIN III/CIS (n = 10)): 7(70.0)
CIN Resolved ([4]; CIN II, N = 27): 30%
Improved to CIN I ([4]; CIN II, N = 27): 22%
Overall Response ([4]; CIN II, N = 27): 52%
Overall “cure” ([4]; CIN II, N = 27): 52%
CIN Resolved ([4]; CIN III, N = 21): 24%
Improved from CIN III to CIN II ([4]; CIN III, N = 21): 29%
Improved to CIN I ([4]; CIN III, N = 21): 19%
Overall Response ([4]; CIN III, N = 21): 72%
Overall “cure” ([4]; CIN III, N = 21): 43%
CIN Resolved ([4]; Total, N = 48): 27%
Improved from CIN III to CIN II ([4]; Total, N = 48): 13%
Improved to CIN I ([4]; Total, N = 48): 21%
Overall Response ([4]; Total, N = 48): 61%
Overall “cure” ([4]; Total, N = 48): 48%
response rates versus length of treatment ([4]; eight to fourteen days): did not increase
patients with complete response ([4]; human, in vivo): Twelve
patients with partial response (regressed to CIN I) ([4]; human, in vivo): eleven
patients with stable disease with no progression ([4]; human, in vivo): Twenty-six
Response: Complete [4, 8]: 0(0.0)
Response: Overall [4, 8]: 0(0.0)
Response: Partial [4, 8]: 0(0.0)
Response: Progression [4, 8]: 0(0.0)
Response: Stable [4, 8]: 2(100.0)
Response: Complete [4, 9]: 7(30.4)
Response: Overall [4, 9]: 14(60.8)
Response: Partial [4, 9]: 7(30.4)
Response: Progression [4, 9]: 0(0.0)
Response: Stable [4, 9]: 9(39.1)
Response: Complete [4, 10]: 5(20.8)
Response: Overall [4, 10]: 9(37.5)
Response: Partial [4, 10]: 4(16.7)
Response: Progression [4, 10]: 0(0.0)
Response: Stable [4, 10]: 15(62.5)
overall response rate (partial plus complete) ([4]; ninety days after treatment, 47 patients, eight day or fourteen day treatment): 48.7%
adverse effects ([4]; no patient withdrawn because of an adverse event): all averse effects reported were mild
highest overall response rate ([4]; patients treated for eight days): 60.8%
response ([4]; two patients, four day treatment): no response

COc1ccc(-c2nc3ccc(C(=O)O)cc3[nH]2)cc1C12CC3CC(CC(C3)C1)C2 [Compound 2, 2-[3-(1-adamantyl)-4-methoxyphenyl]-5-benzimidazole carboxylic acid]
Types of Cancers and Precancers Active Against (cancer cells): brain, colon, leukemia, lung,; also recorded: cervical (including, e.g.,; also recorded: cervical intraepithelial neoplasia; also recorded: I, II, III), lymphoma, myeloma,; also recorded: ovarian, pancreatic, prostate,; also recorded: skin, liver
anti-cancer activity [5]: significant anti-cancer activity
effect on proliferation of human cervical cell lines [2]: strong inhibitory effect

COc1cc(-c2ccc3cc(C(=O)O)ccc3c2)cc(C23CC4CC(CC(C4)C2)C3)c1O [Compound 4, 6-[3-(1-adamantyl)-4-hydroxy-5-methoxyphenyl]-2-naphthoic acid]
Types of Cancers and Precancers Active Against (cancer cells): brain, breast, kidney, lung,; also recorded: leukemia, lymphoma, myeloma,; also recorded: ovarian, pancreatic, prostate,; also recorded: skin, liver
anti-cancer activity [5]: significant anti-cancer activity

O=C(O)c1ccc2cc(-c3cc4c(c(C56CC7CC(CC(C7)C5)C6)c3)OCO4)ccc2c1 [Compound 6, 6-[3-(1-adamantyl)-4,5-methylenedioxyphenyl]-2-naphthoic acid]
Types of Cancers and Precancers Active Against (cancer cells): brain, breast, head and neck,; also recorded: kidney, leukemia, lung, lym-; also recorded: phoma, myeloma, ovarian,; also recorded: prostate, skin, liver, cervical; also recorded: (including, e.g., cervical; also recorded: intraepithelial neoplasia I, II,; also recorded: III),
anti-cancer activity [5]: significant anti-cancer activity
tumor size [6]: substantial reduction in tumor size
effect on proliferation of human cervical cell lines [2]: strong inhibitory effect

CC1=C(/C=C/C(C)=C/C=C/C(C)=C/C(=O)O)C(C)(C)CCC1 [all-trans-retinoic acid, reference compound]
activity against human cancers (percentage of surviving cells) [7]: did not give comparable results
anti-cancer activity [5]: did not exhibit similar activity
effect on proliferation of human cervical cell lines [2]: no significant effect on cell proliferation
induction of apoptosis [3]: did not induce apoptosis significantly

Ceramide
induction of apoptosis [3]: effectively induced apoptosis
